Source: patent US11639350B2, “Heteroaryldihydropyrimidine derivatives and methods of treating hepatitis B infections” (Janssen Pharmaceutica NV, priority 2018, dated 2023)
pEC50: −log10 of the molar value.

Assays:
[1] = Cytotoxicity determination in HepG2.2.15 cells (CCK-8); assay type: cell-based; conditions: human, 6 days of compound treatment, CCK-8, highest concentration 100 μM
Summary of the method: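 HepG2.2.15 cells seeded at 5,000 cells/well in 2% FBS medium, incubated overnight at 37° C., then treated 6 days with compounds (8 points, 3-fold dilutions, top 100 μM), medium refreshed once midway. CCK-8 added for 2.5 h; A450 read against 630 nm reference; CC50 calculated, averaged over repeats.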

HBV = HBV inhibitory activity: HBV DNA in the culture medium of HepG2.2.15 cells by q-PCR; assay type: cell-based; conditions: Hepatitis B virus, HepG2.2.15, 144 h, HepG2.2.15 cells, 6 days of compound treatment, HBV DNA in culture medium by q-PCR, highest concentration 10 μM; read-out: EC50
Summary of the method: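 HepG2.2.15 cells in 2% FBS medium, 40,000 per well, treated 6 days with compound (medium refreshed once), eight 3-fold dilutions from 10 μM top. HBV DNA extracted from culture medium and quantified by q-PCR; EC50 averaged over repeats. Cytotoxicity run in parallel at 5,000 cells per well, top 100 μM, giving CC50.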

SMILES	CC50 at 6 days [1] [nM]	pEC50 (HBV)
COC(=O)C1=C(C2CCN(S(=O)(=O)[C@H]3C[C@@H](C(=O)O)C3)C2)NC(c2nccs2)=NC1c1ccc(F)cc1Cl (relative stereo) [Compound 367B, (cis)-3-((3-(6-(2-chloro-4-fluorophenyl)-5-(methoxycarbonyl)-2-(thiazol-2-yl)-3,6-dihydropyrimidin-4-yl)pyrrolidin-1-yl)sulfonyl)cyclobutanecarboxylic Acid]	> 100000	6.10
COC(=O)C1=C(C2C3CCC2CN(S(C)(=O)=O)C3)NC(c2nccs2)=NC1c1cccc(F)c1Cl (single isomer, unassigned) [Compound 37B, Methyl 4-(2-chloro-3-fluorophenyl)-6-(3-(methylsulfonyl)-3-azabicyclo[3.2.1]octan-8-yl)-2-(thiazol-2-yl)-1,4-dihydropyrimidine-5-carboxylate]	5900	6.89
COC(=O)C1=C(C2CCN(C(=O)CO)CC2)NC(c2nccs2)=NC1c1ccc(F)cc1Cl (single isomer, unassigned) [Compound 122B, Methyl 4-(2-chloro-4-fluorophenyl)-6-(1-(2-hydroxyacetyl)-piperidin-4-yl)-2-(thiazol-2-yl)-1,4-dihydropyrimidine-5-carboxylate]	31600	7.24
COC(=O)C1=C(C2CCN(S(=O)(=O)CC(=O)O)CC2)NC(c2nccs2)=NC1c1ccc(F)cc1Cl (stereo not drawn) [Compound 107, 2-((4-(6-(2-Chloro-4-fluorophenyl)-5-(methoxycarbonyl)-2-(thiazol-2-yl)-3,6-dihydropyrimidin-4-yl)piperidin-1-yl)sulfonyl)acetic Acid]	51400	6.61
COC(=O)C1=C(C2CCN(C(=O)CO)CC2)NC(c2nccs2)=NC1c1ccc(F)cc1Cl (stereo not drawn) [Compound 122, Methyl 4-(2-chloro-4-fluorophenyl)-6-(1-(2-hydroxyacetyl)-piperidin-4-yl)-2-(thiazol-2-yl)-1,4-dihydropyrimidine-5-carboxylate]	5100	6.40
CCOC(=O)C1=C(C2CCN(S(=O)(=O)[C@H]3CC[C@H](C(=O)O)CC3)CC2)NC(c2nccs2)=NC1c1ccc(F)c(F)c1Cl (relative stereo) [Compound 354C, (trans)-4-((4-(6-(2-Chloro-3,4-difluorophenyl)-5-(ethoxycarbonyl)-2-(thiazol-2-yl)-3,6-dihydropyrimidin-4-yl)piperidin-1-yl)sulfonyl)cyclohexane-carboxylic Acid]	7900	7.82
COC(=O)C1=C([C@H]2CC[C@H](C(=O)O)CC2)NC(c2nccs2)=NC1c1ccc(F)c(F)c1C (stereo partly drawn) [Compound 227A, (trans)-4-(−6-(3,4-Difluoro-2-methylphenyl)-5-(methoxycarbonyl)-2-(thiazol-2-yl)-3,6-dihydropyrimidin-4-yl)cyclohexanecarboxylic Acid]	37600	7.02
COC(=O)C1=C([C@H]2CCC[C@@H](C(=O)OC)C2)NC(c2nccs2)=NC1c1cccc(F)c1Cl (single isomer, unassigned) [Compound 24Q, cis-Methyl 4-(2-chloro-3-fluorophenyl)-6-(3-(methoxycarbonyl)-cyclohexyl)-2-(thiazol-2-yl)-1,4-dihydropyrimidine-5-carboxylate]	3520	6.02
COC(=O)C1=C(C2CCN(C)C(=O)C2)NC(c2nccs2)=NC1c1cccc(F)c1Cl (single isomer, unassigned) [Compound 4B, Methyl 4-(2-chloro-3-fluorophenyl)-6-(1-methyl-2-oxopiperidin-4-yl)-2-(thiazol-2-yl)-1,4-dihydropyrimidine-5-carboxylate]	> 10000	6.45
COC(=O)C1=C(C2CC(O)C2)NC(c2nccs2)=NC1c1ccc(F)cc1Cl (stereo not drawn) [Compound 295, Methyl 4-(2-chloro-4-fluorophenyl)-6-(3-hydroxycyclobutyl)-2-(thiazol-2-yl)-1,4-dihydropyrimidine-5-carboxylate]	64200	6.67
CCCS(=O)(=O)N[C@H]1CC[C@H](C2=C(C(=O)OC)C(c3ccc(F)cc3Cl)N=C(c3nccs3)N2)CC1 (single isomer, unassigned) [Compound 186A, (trans)-Methyl 4-(2-chloro-4-fluorophenyl)-6-(4-(propyl-sulfonamido)cyclohexyl)-2-(thiazol-2-yl)-1,4-dihydropyrimidine-5-carboxylate]	83100	7.01
COC(=O)C1=C(C2CCN(S(C)(=O)=O)CC2)NC(c2nccs2)=NC1c1ccc(Cl)c(F)c1 (single isomer, unassigned) [Compound 124B, 4-(4-Chloro-3-fluoro-phenyl)-6-(1-methanesulfonyl-piperidin-4-yl)-2-thiazol-2-yl-1,4-dihydro-pyrimidine-5-carboxylic Acid Methyl Ester]	6600	7.07
CCOC(=O)C1=C(C2CCN(S(=O)(=O)[C@H]3C[C@H](C(=O)O)C3)CC2)NC(c2c(F)cc(F)cc2F)=NC1c1ccc(F)c(F)c1Cl (stereo partly drawn) [Compound 195A, (trans)-3-((4-(6-(2-Chloro-3,4-difluorophenyl)-5-(ethoxycarbonyl)-2-(2,4,6-trifluorophenyl)-3,6-dihydropyrimidin-4-yl)piperidin-1-yl)sulfonyl)cyclobutanecarboxylic Acid]	43900	7.08
COC(=O)C1=C(C2CCN(S(=O)(=O)c3cnn(Cc4ncco4)c3)CC2)NC(c2nccs2)=NC1c1ccc(F)c(F)c1Cl (stereo not drawn) [Compound 465, Methyl 4-(2-chloro-3,4-difluorophenyl)-6-(1-((1-(oxazol-2-ylmethyl)-1H-pyrazol-4-yl)sulfonyl)piperidin-4-yl)-2-(thiazol-2-yl)-1,4-dihydropyrimidine-5-carboxylate]	35200	8.05
CCOC(=O)C1=C([C@H]2CC[C@H](C(=O)O)CC2)NC(c2nccs2)=NC1c1ccc(F)cc1Br (stereo partly drawn) [Compound 156]	34900	7.15
COC(=O)CCS(=O)(=O)N1CCC(C2=C(C(=O)OC)C(c3cccc(F)c3Cl)N=C(c3nccs3)N2)CC1 (single isomer, unassigned) [Compound 113Y, 4-(2-Chloro-3-fluoro-phenyl)-6-[1-(2-methoxycarbonyl-ethane-sulfonyl)-piperidin-4-yl]-2-thiazol-2-yl-1,4-dihydro-pyrimidine-5-carboxylic Acid Methyl Ester]	11800	6.02
COC(=O)C1=C(C2CCN(C(C)=O)CC2)NC(c2nccs2)=NC1c1ccc(F)cc1Cl (stereo not drawn) [Compound 2, Methyl 6-(1-acetylpiperidin-4-yl)-4-(2-chloro-4-fluorophenyl)-2-(thiazol-2-yl)-1,4-dihydropyrimidine-5-carboxylate]	98400	6.63
COC(=O)C1=C(C2CN(S(=O)(=O)C3CCCCC3)C2)NC(c2nccs2)=NC1c1ccc(F)cc1Cl (stereo not drawn) [Compound 82, Methyl 4-(2-chloro-4-fluorophenyl)-6-(1-(cyclohexylsulfonyl)-azetidin-3-yl)-2-(thiazol-2-yl)-1,4-dihydropyrimidine-5-carboxylate]	6900	6.71
COC(=O)C1=C(C23CC(NC(C)=O)(C2)C3)NC(c2nccs2)=NC1c1ccc(F)cc1Cl (stereo not drawn) [Compound 391B, Methyl 6-(3-acetamidobicyclo[1.1.1]pentan-1-yl)-4-(2-chloro-4-fluorophenyl)-2-(thiazol-2-yl)-1,4-dihydropyrimidine-5-carboxylate]	46800	7.17
CCOC(=O)C1=C([C@@H]2C[C@H](NS(C)(=O)=O)CO2)NC(c2nccs2)=NC1c1cccc(F)c1Cl (relative stereo) [Compound 261, (cis)-Ethyl 4-(2-chloro-3-fluorophenyl)-6-(4-(methylsulfonamido)-tetrahydrofuran-2-yl)-2-(thiazol-2-yl)-1,4-dihydropyrimidine-5-carboxylate]	37500	6.85
CCOC(=O)C1=C(C2CCN(S(=O)(=O)CC3CC(C(=O)O)C3)CC2)NC(c2nccs2)=NC1c1ccc(F)c(F)c1Cl (stereo not drawn) [Compound 480B, 3-(((4-(6-(2-Chloro-3,4-difluorophenyl)-5-(ethoxycarbonyl)-2-(thiazol-2-yl)-3,6-dihydropyrimidin-4-yl)piperidin-1-yl)sulfonyl)methyl)cyclobutanecarboxylic Acid]	9900	7.66
COC(=O)C1=C(C2CN(S(C)(=O)=O)C2)NC(c2nccs2)=NC1c1ccc(F)cc1Cl (single isomer, unassigned) [Compound 84A, 4-(2-Chloro-4-fluoro-phenyl)-6-(1-methanesulfonyl-azetidin-3-yl)-2-thiazol-2-yl-1,4-dihydro-pyrimidine-5-carboxylic Acid Methyl Ester]	29000	6.93
COC(=O)C1=C([C@H]2CC[C@H](C(=O)OC)CC2)NC(c2nccs2)=NC1c1ccc(F)cc1Br (relative stereo) [Compound 224, (trans)-Methyl 4-(2-bromo-4-fluorophenyl)-6-(4-(methoxycarbonyl)cyclohexyl)-2-(thiazol-2-yl)-1,4-dihydropyrimidine-5-carboxylate]	28400	7.15
COC(=O)C1=C(C23CC(NS(=O)(=O)C4CNC4)(C2)C3)NC(c2nccs2)=NC1c1ccc(F)c(F)c1Cl (stereo not drawn) [Compound 406, Methyl 6-(3-(azetidine-3-sulfonamido)bicyclo[1.1.1]pentan-1-yl)-4-(2-chloro-3,4-difluorophenyl)-2-(thiazol-2-yl)-1,4-dihydropyrimidine-5-carboxylate]	5600	6.22
